The results in this text go back to patent publication US20260365637A1, “DUAL EZH2-HSP90 INHIBITORS” (TAIPEI MEDICAL UNIVERSITY, priority 2023, published 2026).

What is called IC50 is the concentration that gives 50% inhibition. Read a low IC50 as greater potency.

One experiment deals with Pt3R tumors. Kind of experiment: Growth of TMZ-resistant Pt3R tumors in mice. The format is in vivo, NOD.CB17-Prkdc^scid/NCrCrl mice. The settings on record: 5 mg/kg twice weekly. How it is done: NOD.CB17-Prkdc^scid/NCrCrl mice (8-week-old) were purchased from BioLASCO Taiwan Co., Ltd. (Taipei, Taiwan). Pt3R cells (1×10^6) in […] DMEM were injected onto the backs of mice. After 10 days, tumor was touchable. Mice were injected with DMSO (the control group) or MPT1A059 (5 mg/kg) twice per week.
In-vivo anti-GBM efficacy of compound 7 was also evaluated in this study. For the in-vivo study, experimental NOD.CB17-Prkdc^scid/NCrCrl mice (8-week-old) were used and Pt3R cells (1×10^6) in […] DMEM were injected into the backs of mice. After 10 days, the tumor was detectable. Mice were injected with DMSO (the control group) or compound 7 (5 mg/kg) twice weekly. […] In a nutshell, the outcome of the in-vivo study ascertains that the remarkable in vitro anti-GBM activity profile of dual inhibitor 7 was translated to the in-vivo potential.

A further experiment concerns the target EZH2 (Core Histone) (Homo sapiens, UniProt Q15910). The experiment can be described thus: EZH2 inhibition assay (Reaction Biology Corporation). The format is biochemical. How it is done:
The EZH2 inhibitory ability of the synthesized adduct was assessed by Reaction Biology Corporation, Malvern, PA (http://www.reactionbiology.com).

In a further experiment the test system is Pt3R cells. Kind of experiment: RNA-seq gene expression profiling in Pt3R cells. It is filed as cell-based, human. How it is done: Pt3 GBM cells were isolated from a GBM patient as described in our previous study. Temozolomide (TMZ)-resistant phenotype of Pt3R cells had been validated previously. Pt3 cells were cultured in DMEM-supplemented with 10% fetal bovine serum, 100 μg/ml streptomycin and 100 μg/ml penicillin G. Pt3R cells were cultured in the presence of 100 μM of TMZ (MilliporeSigma Corporate, St. Louis, MO, USA).
RNA was isolated using the RNA extracting kit (Zymo Research, Irvine, CA, USA), and subjected to RNA-seq serviced by BIOTOOLS Co., Ltd (New Taipei City, Taiwan). Cell pellets were collected and subjected to proteomic analysis serviced by BIOTOOLS Co., Ltd. The comparison in gene expression between Pt3 and Pt3R was performed using RNA seq, and has been described previously.
To gain insights regarding the ability of dual inhibitor 7 to suppress the viability of TMZ-resistant GBM cells, RNA-seq to analyze gene expression profiles was performed.

Chain of EZH2 (Core Histone) (Q15910 whole entry): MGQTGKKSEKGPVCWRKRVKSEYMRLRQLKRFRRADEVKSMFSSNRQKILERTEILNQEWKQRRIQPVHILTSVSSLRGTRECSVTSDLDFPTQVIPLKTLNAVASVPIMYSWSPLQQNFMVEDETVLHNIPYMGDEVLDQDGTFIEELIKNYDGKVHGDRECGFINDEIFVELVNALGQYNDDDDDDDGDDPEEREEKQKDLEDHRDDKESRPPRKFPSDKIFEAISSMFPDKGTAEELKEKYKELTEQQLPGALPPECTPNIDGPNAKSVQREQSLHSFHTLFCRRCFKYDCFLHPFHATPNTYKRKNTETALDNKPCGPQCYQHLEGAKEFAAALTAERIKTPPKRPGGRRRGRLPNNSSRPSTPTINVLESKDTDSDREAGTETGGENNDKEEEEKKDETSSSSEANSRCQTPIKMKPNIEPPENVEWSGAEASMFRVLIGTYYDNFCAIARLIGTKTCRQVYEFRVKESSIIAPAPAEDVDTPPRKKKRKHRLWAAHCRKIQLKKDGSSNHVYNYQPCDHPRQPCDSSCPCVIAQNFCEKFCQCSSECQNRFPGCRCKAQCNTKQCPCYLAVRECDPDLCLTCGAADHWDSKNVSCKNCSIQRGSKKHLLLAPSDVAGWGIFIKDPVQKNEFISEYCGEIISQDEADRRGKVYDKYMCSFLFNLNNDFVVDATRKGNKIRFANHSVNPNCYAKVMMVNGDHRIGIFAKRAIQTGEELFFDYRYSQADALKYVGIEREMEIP
Chain of EZH2 (Core Histone) (O75530 whole entry partner): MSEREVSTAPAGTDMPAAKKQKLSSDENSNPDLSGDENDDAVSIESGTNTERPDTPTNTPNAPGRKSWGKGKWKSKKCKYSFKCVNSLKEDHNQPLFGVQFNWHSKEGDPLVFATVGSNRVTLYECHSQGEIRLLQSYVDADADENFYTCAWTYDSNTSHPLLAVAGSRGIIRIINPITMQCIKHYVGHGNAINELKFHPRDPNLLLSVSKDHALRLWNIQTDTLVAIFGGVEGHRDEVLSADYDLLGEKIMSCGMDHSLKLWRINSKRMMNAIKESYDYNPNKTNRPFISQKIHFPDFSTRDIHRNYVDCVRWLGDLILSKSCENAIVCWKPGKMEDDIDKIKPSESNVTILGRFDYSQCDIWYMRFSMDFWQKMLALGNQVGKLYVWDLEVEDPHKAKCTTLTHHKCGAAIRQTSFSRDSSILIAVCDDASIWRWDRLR
Chain of EZH2 (Core Histone) (Q15022 whole entry partner): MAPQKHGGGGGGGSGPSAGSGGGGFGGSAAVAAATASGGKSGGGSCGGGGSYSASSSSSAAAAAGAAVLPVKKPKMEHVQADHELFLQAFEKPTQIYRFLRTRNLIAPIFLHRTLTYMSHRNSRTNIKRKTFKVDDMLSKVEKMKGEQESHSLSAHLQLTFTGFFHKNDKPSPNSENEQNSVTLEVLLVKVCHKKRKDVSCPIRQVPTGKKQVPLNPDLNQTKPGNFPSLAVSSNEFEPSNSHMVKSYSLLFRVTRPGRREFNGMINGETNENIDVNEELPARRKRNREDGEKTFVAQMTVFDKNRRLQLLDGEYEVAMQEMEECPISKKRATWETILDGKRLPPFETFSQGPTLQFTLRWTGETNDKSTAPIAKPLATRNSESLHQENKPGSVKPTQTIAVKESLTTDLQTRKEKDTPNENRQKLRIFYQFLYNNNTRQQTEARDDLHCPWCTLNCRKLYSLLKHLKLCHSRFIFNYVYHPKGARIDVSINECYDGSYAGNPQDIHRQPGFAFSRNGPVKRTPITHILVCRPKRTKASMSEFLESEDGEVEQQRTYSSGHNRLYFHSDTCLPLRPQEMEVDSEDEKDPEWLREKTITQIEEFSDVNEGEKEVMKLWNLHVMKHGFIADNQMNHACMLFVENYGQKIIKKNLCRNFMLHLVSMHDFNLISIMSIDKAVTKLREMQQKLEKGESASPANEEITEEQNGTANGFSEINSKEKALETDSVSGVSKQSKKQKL
Chain of EZH2 (Core Histone) (Q09028 whole entry partner): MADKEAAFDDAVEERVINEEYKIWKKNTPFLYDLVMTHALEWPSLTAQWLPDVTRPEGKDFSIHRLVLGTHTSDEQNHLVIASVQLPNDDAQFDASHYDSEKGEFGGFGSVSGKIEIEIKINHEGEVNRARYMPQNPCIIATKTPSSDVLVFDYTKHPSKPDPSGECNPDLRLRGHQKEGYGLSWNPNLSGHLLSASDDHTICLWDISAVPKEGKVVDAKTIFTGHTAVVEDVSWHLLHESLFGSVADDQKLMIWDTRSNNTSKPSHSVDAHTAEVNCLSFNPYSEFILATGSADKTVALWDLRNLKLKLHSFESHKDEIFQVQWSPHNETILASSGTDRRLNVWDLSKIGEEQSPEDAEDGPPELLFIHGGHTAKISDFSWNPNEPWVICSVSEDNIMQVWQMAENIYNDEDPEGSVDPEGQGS
Chain of EZH2 (Core Histone) (Q6ZN18 whole entry partner): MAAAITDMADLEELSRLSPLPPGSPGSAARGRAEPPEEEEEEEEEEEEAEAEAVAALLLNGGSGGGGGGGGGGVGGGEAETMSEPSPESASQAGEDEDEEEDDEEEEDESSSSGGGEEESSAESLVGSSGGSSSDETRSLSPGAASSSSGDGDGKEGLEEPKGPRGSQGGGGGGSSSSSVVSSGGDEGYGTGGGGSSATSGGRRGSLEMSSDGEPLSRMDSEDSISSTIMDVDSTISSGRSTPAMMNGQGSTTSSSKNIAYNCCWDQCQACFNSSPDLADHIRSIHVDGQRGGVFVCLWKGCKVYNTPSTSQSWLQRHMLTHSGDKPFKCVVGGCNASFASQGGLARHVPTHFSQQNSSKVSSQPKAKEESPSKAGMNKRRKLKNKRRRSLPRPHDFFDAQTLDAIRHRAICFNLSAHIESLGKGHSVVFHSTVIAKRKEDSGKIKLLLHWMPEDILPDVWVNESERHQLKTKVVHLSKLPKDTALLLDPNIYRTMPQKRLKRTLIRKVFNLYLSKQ

With `CCN(c1cc(-c2cccc(N(C)C(=O)c3cc(C(C)C)c(O)cc3O)c2)cc(C(=O)NCc2c(C)cc(C)[nH]c2=O)c1C)C1CCOCC1` [Compound 7, 3′-(2,4-dihydroxy-5-isopropyl-N-methylbenzamido)-N-((4,6-dimethyl-2-oxo-1,2-dihydropyridin-3-yl)methyl)-5-(ethyl(tetrahydro-2H-pyran-4-yl)amino)-4-methyl-[1,1′-biphenyl]-3-carboxamide], the “tumor size and weight compared to DMSO-treated mice” value in the experiment on Pt3R tumors (FIG. 8A) was “significantly smaller sizes and weights”. The tumor growth result in the experiment with Pt3R tumors (FIG. 8B) was “tumor growth suppression ability”. At EZH2 (Core Histone), this compound registered an IC50 of 6.29 nM. Also, in the experiment on Pt3R cells, the DNA repair capacity entry is on record as “highly suppressed”. For the same compound, the “CENPF, CENPE, CENPA and CENPI (gene expression)” value with Pt3R cells (FIG. 5C) is “decreased”. In the experiment with Pt3R cells (FIG. 6A), the “RBBP8 and BRCA1 gene expression” value is “suppressed”; the “expression of genes involved in processing DNA double-strand break and in homologous recombination” value was “decreased”. Further, the “expression of genes regulating homologous recombination (TOP2A, RAD54B, RAD21, EME1, BRIP1)” value in the experiment on Pt3R cells (FIG. 6H) is “suppressed”. Further, in the experiment with Pt3R cells (GSEA), the “cell division and DNA repair gene sets (GSEA)” value is listed as “highly suppressed”. In the experiment on Pt3R cells (RNA-seq), the “M phase/kinetochore/spindle-related gene expression” value is listed as “decreased” and the apoptosis/necrosis-related gene expression result is “increased”. For the same compound, in the experiment with Pt3R cells (RNA-seq, 2 μM, 48 h), the “number of gene expressions decreased” value stood at 498 and the “number of gene expressions increased” value worked out at 297.
